Data from PubChem BioAssay AID248 (DTP/NCI, 2004).
“And” between values parts separate entries of the source, which are not always exact repeats. Identical values can stand only once. Toxic doses and inconclusive results are not listed. Cut-off read from the data, not from the text of the source: active = T/C of 150% or more; inactive = T/C below 125%.

Test system: L1210 leukemia ip in BDF1 mice, survival T/C
Assay: NCI In Vivo Anticancer Drug Screen. Data for tumor model L1210 Leukemia (intraperitoneal) in B6D2F1 (BDF1) mice
Settings: higher = longer survival
Summary of the method: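 Antitumor effect is assessed in tumor-bearing animals. Survival in the compound arm is compared with a vehicle-dosed control arm and expressed as their quotient.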

[1] = endpoint: mean survival time, dose: 100.0 mg/kg/injection, schedule: Q01DX009 (ip), vehicle: Klucel (hydroxypropylcellulose) (HPC)
[2] = endpoint: mean survival time, dose: 200.0 mg/kg/injection, schedule: Q01DX009 (ip), vehicle: Klucel (hydroxypropylcellulose) (HPC)
[3] = endpoint: mean survival time, dose: 400.0 mg/kg/injection, schedule: Q01DX009 (ip), vehicle: Klucel (hydroxypropylcellulose) (HPC)
[4] = endpoint: mean survival time, dose: 50.0 mg/kg/injection, schedule: Q01DX001 (ip), vehicle: saline
[5] = endpoint: mean survival time, dose: 200.0 mg/kg/injection, schedule: Q01DX001 (ip), vehicle: saline
[6] = endpoint: mean survival time, dose: 400.0 mg/kg/injection, schedule: Q01DX001 (ip), vehicle: saline
[7] = endpoint: mean survival time, dose: 100.0 mg/kg/injection, schedule: Q01DX009 (ip), vehicle: saline with Tween-80
[8] = endpoint: mean survival time, dose: 100.0 mg/kg/injection, schedule: Q04DX002 (ip), vehicle: saline with Tween-80
[9] = endpoint: mean survival time, dose: 200.0 mg/kg/injection, schedule: Q04DX002 (ip), vehicle: saline with Tween-80
[10] = endpoint: mean survival time, dose: 50.0 mg/kg/injection, schedule: Q01DX009 (ip), vehicle: saline with Tween-80
[11] = endpoint: mean survival time, dose: 50.0 mg/kg/injection, schedule: Q01DX009 (ip), vehicle: Klucel (hydroxypropylcellulose) (HPC)
[12] = endpoint: mean survival time, dose: 100.0 mg/kg/injection, schedule: Q04DX003 (ip), vehicle: Klucel (hydroxypropylcellulose) (HPC)
[13] = endpoint: mean survival time, dose: 200.0 mg/kg/injection, schedule: Q04DX003 (ip), vehicle: Klucel (hydroxypropylcellulose) (HPC)
[14] = endpoint: mean survival time, dose: 400.0 mg/kg/injection, schedule: Q04DX003 (ip), vehicle: Klucel (hydroxypropylcellulose) (HPC)
[15] = endpoint: mean survival time, dose: 100.0 mg/kg/injection, schedule: Q04DX003 (ip), vehicle: saline with Tween-80
[16] = endpoint: mean survival time, dose: 200.0 mg/kg/injection, schedule: Q04DX003 (ip), vehicle: saline with Tween-80
[17] = endpoint: mean survival time, dose: 400.0 mg/kg/injection, schedule: Q04DX003 (ip), vehicle: saline with Tween-80
[18] = endpoint: mean survival time, dose: 100.0 mg/kg/injection, schedule: Q01DX001 (ip), vehicle: saline

Measured: T/C

COc1ccc(O)c(/C=N\N=C\c2cc(OC)ccc2O)c1
inactive: [1] 106 % of control | [2] 101 % of control | [3] 95 % of control

COc1ccccc1/C=N\NC(=O)CCCC(=O)N/N=C/c1ccccc1OC
inactive: [4] 95 % of control | [5] 95 % of control | [6] 90 % of control

O=C1C=C[C@H](O)[C@@]2(CO)O[C@@H]12
inactive: endpoint: median survival time, dose: 0.62 mg/kg/injection, schedule: Q01DX009 (ip), vehicle: saline with Tween-80 101 % of control | endpoint: median survival time, dose: 1.25 mg/kg/injection, schedule: Q01DX009 (ip), vehicle: saline with Tween-80 108 % of control | endpoint: median survival time, dose: 2.5 mg/kg/injection, schedule: Q01DX009 (ip), vehicle: saline with Tween-80 113 % of control | endpoint: median survival time, dose: 5.0 mg/kg/injection, schedule: Q01DX009 (ip), vehicle: saline with Tween-80 120 % of control | endpoint: median survival time, dose: 10.0 mg/kg/injection, schedule: Q01DX009 (ip), vehicle: saline with Tween-80 120 % of control

Oc1ccccc1C1CC2CCC1C2 (stereo unspecified)
inactive: endpoint: mean survival time, dose: 50.0 mg/kg/injection, schedule: Q04DX002 (ip), vehicle: saline with Tween-80 106 % of control | [7] 107 % of control | [8] 103 % of control | [9] 100 % of control

C=CCn1c2c(c3ccccc31)CCC2
inactive: [10] 86 % of control | [7] 93 % of control

Nc1nncc(-c2cnnc(N)n2)n1
inactive: endpoint: mean survival time, dose: 50.0 mg/kg/injection, schedule: Q04DX002 (ip), vehicle: Klucel (hydroxypropylcellulose) (HPC) 111 % of control | endpoint: mean survival time, dose: 100.0 mg/kg/injection, schedule: Q04DX002 (ip), vehicle: Klucel (hydroxypropylcellulose) (HPC) 104 % of control | endpoint: mean survival time, dose: 200.0 mg/kg/injection, schedule: Q04DX002 (ip), vehicle: Klucel (hydroxypropylcellulose) (HPC) 111 % of control

CN(C)c1ccc(C=NCCCO)cc1
inactive: [8] 92 % of control | [9] 103 % of control

COc1cccc(O)c1/C=C/[N+](=O)[O-]
inactive: [11] 104 % of control | [1] 102 % of control

CNCC(C)CN1CCCCCc2ccccc21 (stereo unspecified)
inactive: endpoint: mean survival time, dose: 3.12 mg/kg/injection, schedule: Q01DX009 (ip), vehicle: saline 100 % of control | endpoint: mean survival time, dose: 6.25 mg/kg/injection, schedule: Q01DX009 (ip), vehicle: saline 93 % of control | endpoint: mean survival time, dose: 12.5 mg/kg/injection, schedule: Q01DX009 (ip), vehicle: saline 100 % of control | endpoint: mean survival time, dose: 25.0 mg/kg/injection, schedule: Q01DX009 (ip), vehicle: saline 97 % of control | endpoint: mean survival time, dose: 50.0 mg/kg/injection, schedule: Q01DX009 (ip), vehicle: saline 104 % of control

CC(CC(=O)O)c1ccc(C(C)(C)C)cc1 (stereo unspecified)
inactive: [12] 95 % of control | [13] 107 % of control | [14] 98 % of control

O=C(O)c1ccc(-c2ccc(O)cc2)cc1
inactive: [1] 98 % of control | [2] 101 % of control | [3] 102 % of control

O=C(O)C(F)(F)C(F)(F)C(F)(F)F.[Ag]
inactive: endpoint: mean survival time, dose: 10.0 mg/kg/injection, schedule: Q01DX001 (ip), vehicle: acetone 101 % of control | endpoint: mean survival time, dose: 20.0 mg/kg/injection, schedule: Q01DX001 (ip), vehicle: acetone 96 % of control | endpoint: mean survival time, dose: 40.0 mg/kg/injection, schedule: Q01DX001 (ip), vehicle: acetone 109 % of control

CC1=CC(=C(c2ccccc2)c2ccccc2)C=C(C)C1=O
inactive: endpoint: mean survival time, dose: 12.0 mg/kg/injection, schedule: Q01DX009 (ip), vehicle: Klucel (hydroxypropylcellulose) (HPC) 103 % of control | endpoint: mean survival time, dose: 25.0 mg/kg/injection, schedule: Q01DX009 (ip), vehicle: Klucel (hydroxypropylcellulose) (HPC) 107 % of control | [11] 97 % of control | [1] 100 % of control | [12] 102 % of control | [13] 102 % of control | [14] 122 % of control

CCOC(=O)C(C#N)(C1C=CCC1)C1C=CCC1 (stereo unspecified)
inactive: [15] 100 % of control | [16] 100 % of control | [17] 100 % of control

C/[N+]([O-])=N\Nc1c(Br)cc(Br)cc1Br
inactive: [10] 105 % of control | [7] 102 % of control | endpoint: mean survival time, dose: 200.0 mg/kg/injection, schedule: Q01DX009 (ip), vehicle: saline with Tween-80 105 % of control

C[N+]1(C)CCC(OC(=O)C(O)(c2ccccc2)C2CCCC2)C1 (stereo unspecified)
inactive: [15] 100 % of control

CCCCCC(=O)Oc1c(C(C)(C)C)cc([N+](=O)[O-])c(C)c1[N+](=O)[O-]
inactive: endpoint: mean survival time, dose: 100.0 mg/kg/injection, schedule: Q04DX002 (ip), vehicle: saline 93 % of control | endpoint: mean survival time, dose: 200.0 mg/kg/injection, schedule: Q04DX002 (ip), vehicle: saline 93 % of control

O=C(O)/C=C/C(=O)Nc1cccc(NC(=O)/C=C/C(=O)O)c1
inactive: [12] 94 % of control | [13] 97 % of control | [14] 96 % of control

CCC#CC#CCC
inactive: [18] 97 % of control | endpoint: mean survival time, dose: 100.0 mg/kg/injection, schedule: Q01DX009 (ip), vehicle: saline 96 % of control | [5] 108 % of control | [6] 112 % of control

Cc1ccc(NC(=O)Oc2ccc(Br)cc2Br)c(Cl)c1
inactive: endpoint: mean survival time, dose: 25.0 mg/kg/injection, schedule: Q01DX009 (ip), vehicle: saline with Tween-80 104 % of control and 106 % of control | [10] 101 % of control and 105 % of control | [8] 101 % of control and 107 % of control | [15] 103 % of control | [9] 97 % of control and 101 % of control | [16] 113 % of control | endpoint: mean survival time, dose: 400.0 mg/kg/injection, schedule: Q04DX002 (ip), vehicle: saline with Tween-80 103 % of control and 111 % of control | [17] 103 % of control

CNC(=O)C1OC(n2cnc3c(N)ncnc32)C2OC(C)(C)OC12 (stereo unspecified)
inactive: endpoint: mean survival time, dose: 100.0 mg/kg/injection, schedule: Q01DX005 (ip), vehicle: saline 97 % of control | endpoint: mean survival time, dose: 200.0 mg/kg/injection, schedule: Q01DX005 (ip), vehicle: saline 101 % of control

O=C(Nc1ccc(Cl)cc1)Nc1ccc(Cl)c(C(F)(F)F)c1
inactive: endpoint: mean survival time, dose: 100.0 mg/kg/injection, schedule: Q01DX001 (ip), vehicle: carboxymethylcellulose (CMC) 108 % of control | endpoint: mean survival time, dose: 200.0 mg/kg/injection, schedule: Q01DX001 (ip), vehicle: carboxymethylcellulose (CMC) 111 % of control | endpoint: mean survival time, dose: 400.0 mg/kg/injection, schedule: Q01DX001 (ip), vehicle: carboxymethylcellulose (CMC) 111 % of control

O=C(CCCC(=O)NNC(=O)NC(=O)C(Cl)(Cl)Cl)NNC(=O)NC(=O)C(Cl)(Cl)Cl
inactive: [4] 108 % of control | [18] 96 % of control | [5] 102 % of control | [6] 102 % of control

O=C(CC1OC1c1ccccc1)c1ccccc1 (stereo unspecified)
inactive: endpoint: mean survival time, dose: 50.0 mg/kg/injection, schedule: Q01DX001 (ip), vehicle: Klucel (hydroxypropylcellulose) (HPC) 110 % of control | endpoint: mean survival time, dose: 100.0 mg/kg/injection, schedule: Q01DX001 (ip), vehicle: Klucel (hydroxypropylcellulose) (HPC) 100 % of control | endpoint: mean survival time, dose: 100.0 mg/kg/injection, schedule: Q04DX003 (ip), vehicle: other 99 % of control | endpoint: mean survival time, dose: 200.0 mg/kg/injection, schedule: Q01DX001 (ip), vehicle: Klucel (hydroxypropylcellulose) (HPC) 102 % of control | endpoint: mean survival time, dose: 200.0 mg/kg/injection, schedule: Q04DX003 (ip), vehicle: other 94 % of control | endpoint: mean survival time, dose: 400.0 mg/kg/injection, schedule: Q04DX003 (ip), vehicle: other 101 % of control

C=CC[Se]c1nc(N)nc2c1ncn2C1OC(CO)C(O)C1O (stereo unspecified)
inactive: endpoint: mean survival time, dose: 12.5 mg/kg/injection, schedule: Q01DX005 (ip), vehicle: saline 104 % of control | endpoint: mean survival time, dose: 25.0 mg/kg/injection, schedule: Q01DX005 (ip), vehicle: saline 100 % of control
